From US9210935B2, “Pesticide composition comprising fosetyl-aluminium, propamocarb-HCl and an insecticide active substance” (BAYER INTELLECTUAL PROPERTY GMBH, priority 2006, dated 2015)

Tests used:
Type in all cases: in vivo
[1] = tested on: larvae of the fall army worm (Spodoptera frugiperda); assay: Spodoptera frugiperda test (cabbage leaf dip, mortality); conditions: mortality after 4 days, cabbage leaves dipped
[2] = tested on: larvae of the beet army worm (Spodoptera exigua); assay: Spodoptera exigua test (cabbage leaf dip, mortality); conditions: mortality after 4 days, cabbage leaves dipped
[3] = tested on: larvae of the diamond black moth Plutella xylostella; assay: Plutella xylostella test (cabbage leaf dip, mortality); conditions: mortality after 6 days, cabbage leaves dipped

## N#C/N=C1\SCCN1Cc1ccc(Cl)nc1 [thiacloprid]
[1]; rate of application 20 ppm
  Efficacy: 0%

## CN1COCN(Cc2cnc(Cl)s2)/C1=N\[N+](=O)[O-] [thiamethoxam]
[2]; rate of application 20 ppm
  Efficacy: 0%

## CCCOC(=O)NCCCN(C)C.Cl [propamocarb-HCl, propyl[3-(dimethylamino)propyl]carbamate hydrochloride]
[1]; rate of application 200 ppm
  Efficacy: 10%
[2]; rate of application 200 ppm
  Efficacy: 0%
[3]; rate of application 200 ppm
  Efficacy: 0%

## CN/C(=N\[N+](=O)[O-])NCc1cnc(Cl)s1 [clothianidin]
[1]; rate of application 4 ppm
  Efficacy: 50%

## O=[N+]([O-])NC1=NCCN1Cc1ccc(Cl)nc1 [imidacloprid]
[3]; rate of application 100 ppm
  Efficacy: 15%
